# Test results reported in US9980943B2, “Methods of treating muscular dystrophy” (BOARD OF REGENTS OF THE NEVADA SYSTEM OF HIGHER EDUCATION, …, priority 2013, dated 2018).
# Key:
# Format in all cases: cell-based, mouse
# [1] = test system: α7 integrin (LacZ reporter in α7βgal+/− myoblasts); experiment: Myoblast α7+/LacZ integrin FDG assay (Burkin assay in myoblasts, 96-well); conditions: 96-well; for Burkin Assay in Myoblasts, signal relative to DMSO: α7+/LacZ myoblasts; for Burkin Assay in Myoblasts, value relative to DMSO: SU9516 analogs, N=3-6
# [2] = test system: α7 integrin (LacZ reporter in α7+/LacZ myotubes); experiment: Myotube α7 integrin FDG assay (Burkin assay in myotubes, 96-well); conditions: for Burkin Assay in Myotubes, value relative to DMSO: SU9516 analogs, 96-well, N=3-6
# [3] = test system: β-galactosidase in CMV-LacZ C2C12 myoblasts; experiment: CMV-LacZ secondary screen in C2C12 myoblasts (β-Gal stabilizing assay); conditions: for CMV-LACZ in Myoblasts (β-galactosidase activity relative to DMSO): CMV-LacZ C2C12 myoblasts; for CMV-LACZ in Myoblasts, value relative to DMSO: SU9516 analogs, C2C12 CMV-LacZ, N=2
# Summary of the method: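 First, C2C12 myoblasts were transfected with a linearized CMV-LACZ vector and clonal lines selected by FDG β-gal assay. Then cells were exposed to compounds at 0.5, 1, 5, 10, 20 and 40 μM in 96-well format, two replicates each, and β-gal measured.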
# [4] = test system: β-galactosidase in CMV-LacZ C2C12 myotubes; experiment: CMV-LacZ secondary screen in C2C12 myotubes (β-Gal stabilizing assay); conditions: for CMV-LACZ in Myotubes, signal relative to DMSO: C2C12 CMV-LacZ myotubes, fold relative to DMSO; for CMV-LACZ in Myotubes, value relative to DMSO: SU9516 analogs, C2C12 CMV-LacZ, N=2
# Summary of the method: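 β-Gal level was the read-out, measured in a clonal C2C12 line expressing LacZ from a CMV promoter. Dose-response curves used six concentrations, 0.5 μM up to 40 μM, with duplicate points.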
smiles,measurement,setting,value
CC(C)(C)c1ccc(C(=O)OCC(=O)Nc2sc3c(c2C#N)CCC3)cc1 [MLS000392555-01],"Burkin Assay in Myoblasts, signal relative to DMSO",[1]; 0.5 uM,1.2055
same,"Burkin Assay in Myoblasts, signal relative to DMSO",[1]; 1 uM,1.101
same,"Burkin Assay in Myoblasts, signal relative to DMSO",[1]; 5 uM,1.3
same,"Burkin Assay in Myoblasts, signal relative to DMSO",[1]; 10 uM,0.9734
same,"Burkin Assay in Myoblasts, signal relative to DMSO",[1]; 20 uM,1.314
same,"Burkin Assay in Myoblasts, signal relative to DMSO",[1]; 40 uM,1.226
same,"Burkin Assay in Myotubes, α7 integrin LacZ reporter signal relative to DMSO",[2]; 0.5 uM,0.9647
same,"Burkin Assay in Myotubes, α7 integrin LacZ reporter signal relative to DMSO",[2]; 1 uM,0.9664
same,"Burkin Assay in Myotubes, α7 integrin LacZ reporter signal relative to DMSO",[2]; 5 uM,1.105
same,"Burkin Assay in Myotubes, α7 integrin LacZ reporter signal relative to DMSO",[2]; 10 uM,0.9741
same,"Burkin Assay in Myotubes, α7 integrin LacZ reporter signal relative to DMSO",[2]; 20 uM,0.935
same,"Burkin Assay in Myotubes, α7 integrin LacZ reporter signal relative to DMSO",[2]; 40 uM,0.9301
same,CMV-LACZ in Myoblasts (β-galactosidase activity relative to DMSO),[3]; 0.5 uM,0.8954
same,CMV-LACZ in Myoblasts (β-galactosidase activity relative to DMSO),[3]; 1 uM,0.7638
same,CMV-LACZ in Myoblasts (β-galactosidase activity relative to DMSO),[3]; 5 uM,0.9342
same,CMV-LACZ in Myoblasts (β-galactosidase activity relative to DMSO),[3]; 10 uM,0.9799
same,CMV-LACZ in Myoblasts (β-galactosidase activity relative to DMSO),[3]; 20 uM,0.9559
same,CMV-LACZ in Myoblasts (β-galactosidase activity relative to DMSO),[3]; 40 uM,1.2007
same,"CMV-LACZ in Myotubes, signal relative to DMSO",[4]; 0.5 uM,1.0257
same,"CMV-LACZ in Myotubes, signal relative to DMSO",[4]; 1 uM,0.9676
same,"CMV-LACZ in Myotubes, signal relative to DMSO",[4]; 5 uM,1.0094
same,"CMV-LACZ in Myotubes, signal relative to DMSO",[4]; 10 uM,0.8568
same,"CMV-LACZ in Myotubes, signal relative to DMSO",[4]; 20 uM,1.1537
same,"CMV-LACZ in Myotubes, signal relative to DMSO",[4]; 40 uM,0.9326
O=C(N[C@@H](Cc1c[nH]c2ccccc12)C(=O)O)C1CCN(S(=O)(=O)c2cccs2)CC1 [MLS001175021-01],"Burkin Assay in Myoblasts, signal relative to DMSO",[1]; 0.5 uM,0.92
same,"Burkin Assay in Myoblasts, signal relative to DMSO",[1]; 1 uM,0.9803
same,"Burkin Assay in Myoblasts, signal relative to DMSO",[1]; 5 uM,0.8806
same,"Burkin Assay in Myoblasts, signal relative to DMSO",[1]; 10 uM,0.906
same,"Burkin Assay in Myoblasts, signal relative to DMSO",[1]; 20 uM,0.9747
same,"Burkin Assay in Myoblasts, signal relative to DMSO",[1]; 40 uM,0.9575
same,"Burkin Assay in Myotubes, α7 integrin LacZ reporter signal relative to DMSO",[2]; 0.5 uM,1.061
same,"Burkin Assay in Myotubes, α7 integrin LacZ reporter signal relative to DMSO",[2]; 1 uM,1.0167
same,"Burkin Assay in Myotubes, α7 integrin LacZ reporter signal relative to DMSO",[2]; 5 uM,1.051
same,"Burkin Assay in Myotubes, α7 integrin LacZ reporter signal relative to DMSO",[2]; 10 uM,0.9913
same,"Burkin Assay in Myotubes, α7 integrin LacZ reporter signal relative to DMSO",[2]; 20 uM,0.9799
same,"Burkin Assay in Myotubes, α7 integrin LacZ reporter signal relative to DMSO",[2]; 40 uM,0.8788
same,CMV-LACZ in Myoblasts (β-galactosidase activity relative to DMSO),[3]; 0.5 uM,1.1772
same,CMV-LACZ in Myoblasts (β-galactosidase activity relative to DMSO),[3]; 1 uM,1.0729
same,CMV-LACZ in Myoblasts (β-galactosidase activity relative to DMSO),[3]; 5 uM,0.9282
same,CMV-LACZ in Myoblasts (β-galactosidase activity relative to DMSO),[3]; 10 uM,0.9395
same,CMV-LACZ in Myoblasts (β-galactosidase activity relative to DMSO),[3]; 20 uM,1.1070
same,CMV-LACZ in Myoblasts (β-galactosidase activity relative to DMSO),[3]; 40 uM,1.0907
same,"CMV-LACZ in Myotubes, signal relative to DMSO",[4]; 0.5 uM,1.0611
same,"CMV-LACZ in Myotubes, signal relative to DMSO",[4]; 1 uM,0.9621
same,"CMV-LACZ in Myotubes, signal relative to DMSO",[4]; 5 uM,0.9049
same,"CMV-LACZ in Myotubes, signal relative to DMSO",[4]; 10 uM,0.7979
same,"CMV-LACZ in Myotubes, signal relative to DMSO",[4]; 20 uM,1.1378
same,"CMV-LACZ in Myotubes, signal relative to DMSO",[4]; 40 uM,0.9733
O=C1Nc2ccccc2/C1=C/c1ccc([N+](=O)[O-])cc1 [MLS001194544-01],"Burkin Assay in Myoblasts, value relative to DMSO",[1]; 0.5 uM,1.044
same,"Burkin Assay in Myoblasts, value relative to DMSO",[1]; 1 uM,0.9906
same,"Burkin Assay in Myoblasts, value relative to DMSO",[1]; 5 uM,1.02
same,"Burkin Assay in Myoblasts, value relative to DMSO",[1]; 10 uM,1.145
same,"Burkin Assay in Myoblasts, value relative to DMSO",[1]; 20 uM,0.7914
same,"Burkin Assay in Myoblasts, value relative to DMSO",[1]; 40 uM,0.5028
same,"Burkin Assay in Myotubes, value relative to DMSO",[2]; 0.5 uM,0.9611
same,"Burkin Assay in Myotubes, value relative to DMSO",[2]; 1 uM,0.9995
same,"Burkin Assay in Myotubes, value relative to DMSO",[2]; 5 uM,1.002
same,"Burkin Assay in Myotubes, value relative to DMSO",[2]; 10 uM,1.07
same,"Burkin Assay in Myotubes, value relative to DMSO",[2]; 20 uM,0.754
same,"Burkin Assay in Myotubes, value relative to DMSO",[2]; 40 uM,0.7611
same,"CMV-LACZ in Myoblasts, value relative to DMSO",[3]; 0.5 uM,0.8975
same,"CMV-LACZ in Myoblasts, value relative to DMSO",[3]; 1 uM,0.7213
same,"CMV-LACZ in Myoblasts, value relative to DMSO",[3]; 5 uM,0.9068
same,"CMV-LACZ in Myoblasts, value relative to DMSO",[3]; 10 uM,1.0363
same,"CMV-LACZ in Myoblasts, value relative to DMSO",[3]; 20 uM,0.8983
same,"CMV-LACZ in Myoblasts, value relative to DMSO",[3]; 40 uM,0.7383
same,"CMV-LACZ in Myotubes, value relative to DMSO",[4]; 0.5 uM,1.0764
same,"CMV-LACZ in Myotubes, value relative to DMSO",[4]; 1 uM,1.1318
same,"CMV-LACZ in Myotubes, value relative to DMSO",[4]; 5 uM,0.9683
same,"CMV-LACZ in Myotubes, value relative to DMSO",[4]; 10 uM,0.9739
same,"CMV-LACZ in Myotubes, value relative to DMSO",[4]; 20 uM,0.9800
same,"CMV-LACZ in Myotubes, value relative to DMSO",[4]; 40 uM,0.9400
